The values below come from patent US12391737B2, “Soluble NPY2 receptor agonists” (Boehringer Ingelheim International GmbH, priority 2020, dated 2025).

The nature of this series: Solubility determination. As to conditions: for Sol6: pH 6; for Sol7: pH 7. Here is the method:
Peptides (as TFA salts) were weighed out in a filter unit (Mini-UniPrep Syringeless Filter 0.45 μm, Whatman), and 0.1 M sodium diphosphate buffer at pH 6.4 or 7.0 was added to achieve 10 mg/ml final concentration. The peptide was dissolved by shaking the filter unit horizontally at 600 rpm for 2 hours at room temperature. The sample was filtered, to remove any insoluble particles and diluted to 1 mg/ml in 50% acetonitrile. The control was prepared by weighing out the corresponding peptide and dissolving it in 50% acetonitrile to final concentration of 1 mg/ml. Both the control and sample were analysed with reversed phase chromatography. The area under the peak of the sample was compared to the control and the solubility was calculated based on that ratio.
The pH was measured and recorded for each sample.
System: UltiMate 3000 UPLC, ThermoFisher
Mobile phase A: 5% acetonitrile, 95% water, 0.03% trifluoracetic acid.
Mobile phase B: 95% acetonitrile, 5% water, 0.03% trifluoracetic acid.
Gradient: 0-100% mobile phase B (2 mins.)
Column temperature: 50° C.

The structures appear in SMILES notation.

Consider `CC(C)CC(=O)N[C@@H](C)C(=O)N1CCC[C@H]1C(=O)N[C@@H](C)C(=O)N[C@@H](CCCCNC(=O)CCCCCNC(=O)CC[C@H](NC(=O)CCCCCCCCCCCCCCCCC(=O)O)C(=O)O)C(=O)N1CCC[C@H]1C(=O)N[C@@H](CCC(=O)O)C(=O)N[C@@H](C)C(=O)N[C@@H](C)C(=O)N[C@@H](C)C(=O)N[C@@H](CCC(=O)O)C(=O)N1CCC[C@H]1C(=O)N[C@@H](CCC(=O)O)C(=O)N[C@@H](CCC(=O)O)C(=O)N[C@@H](CC(C)C)C(=O)N[C@@H](CCC(N)=O)C(=O)N[C@@H](CCCNC(=N)N)C(=O)N[C@@H](Cc1ccc(O)cc1)C(=O)N[C@@H](Cc1ccc(O)cc1)C(=O)N[C@H](C(=O)N[C@@H](C)C(=O)N[C@@H](CC(C)C)C(=O)N[C@@H](CCCNC(=N)N)C(=O)N[C@@H](Cc1c[nH]cn1)C(=O)N[C@@H](Cc1ccc(O)cc1)C(=O)N[C@@H](Cc1ccc(O)cc1)C(=O)N[C@@H](CC(N)=O)C(=O)N[C@@H](Cc1c[nH]c2ccccc12)C(=O)N[C@@H](CC(C)C)C(=O)N[C@H](C(=O)N[C@@H](CCCNC(=N)N)C(=O)N[C@@H](CCC(N)=O)C(=O)N[C@@H](CCCNC(=N)N)C(=O)N[C@@H](Cc1ccc(O)cc1)C(N)=O)[C@@H](C)O)C(C)C` [Compound 10, N{alpha-4}-(3-methylbutanoyl)-N{epsilon-7}-(6-[(4S)-4-carboxy-4-(17-carboxyheptadecanamido)butanamido]hexanoyl)[4A,6A,7K,9E,10A,11A,13E,18Q,22V,23A,28Y,30W,31L]-hPYY(4-36)], for which the “Sol6” value amounted to 0.0 mg/mL and the “Sol7” value was found to be 0.0 mg/mL.
With `CC(C)CC(=O)N[C@@H](C)C(=O)N1CCC[C@H]1C(=O)N[C@@H](C)C(=O)N[C@@H](CCCCNC(=O)CCCCCNC(=O)CC[C@H](NC(=O)CCCCCCCCCCCCCCCCC(=O)O)C(=O)O)C(=O)N1CCC[C@H]1C(=O)N[C@@H](CCC(=O)O)C(=O)N[C@@H](CCC(=O)O)C(=O)N[C@@H](CC(=O)O)C(=O)N[C@@H](C)C(=O)N[C@@H](CO)C(=O)N1CCC[C@H]1C(=O)N[C@@H](CCC(=O)O)C(=O)N[C@@H](CCC(=O)O)C(=O)N[C@@H](CC(C)C)C(=O)N[C@@H](CCC(N)=O)C(=O)N[C@@H](CCCNC(=N)N)C(=O)N[C@@H](Cc1ccc(O)cc1)C(=O)N[C@@H](Cc1ccc(O)cc1)C(=O)N[C@H](C(=O)N[C@@H](CO)C(=O)N[C@@H](CC(C)C)C(=O)N[C@@H](CCCNC(=N)N)C(=O)N[C@@H](Cc1c[nH]cn1)C(=O)N[C@@H](Cc1ccc(O)cc1)C(=O)N[C@@H](Cc1ccc(O)cc1)C(=O)N[C@@H](CCC(N)=O)C(=O)N[C@@H](Cc1c[nH]c2ccccc12)C(=O)N[C@@H](CC(C)C)C(=O)N[C@H](C(=O)N[C@@H](CCCNC(=N)N)C(=O)N[C@@H](CCC(N)=O)C(=O)N[C@@H](CCCNC(=N)N)C(=O)N[C@@H](Cc1ccc(O)cc1)C(N)=O)[C@@H](C)O)C(C)C` [Compound 78, N{alpha-4}-(3-methylbutanoyl)-N{epsilon-7}-(6-[(4S)-4-carboxy-4-(17-carboxyheptadecanamido)butanamido]hexanoyl)-[4A,6A,7K,9E,18Q,22V,28Y,29Q,30W,31L]-hPYY(4-36)], the “Sol6” value was determined as 8.1 mg/mL and the “Sol7” value worked out at 7.6 mg/mL.
The like results for `CC(C)CC(=O)N[C@@H](C)C(=O)N1CCC[C@H]1C(=O)N[C@@H](CCC(=O)O)C(=O)N[C@@H](CCCCNC(=O)CCCCCNC(=O)CC[C@H](NC(=O)CCCCCCCCCCCCCCCCC(=O)O)C(=O)O)C(=O)N1CCC[C@H]1C(=O)N[C@@H](CCC(=O)O)C(=O)N[C@@H](C)C(=O)N[C@@H](CC(=O)O)C(=O)N[C@@H](C)C(=O)N[C@@H](CCC(=O)O)C(=O)N1CCC[C@H]1C(=O)N[C@@H](CCC(=O)O)C(=O)N[C@@H](CCC(=O)O)C(=O)N[C@@H](CC(C)C)C(=O)N[C@@H](CCC(N)=O)C(=O)N[C@@H](CCCNC(=N)N)C(=O)N[C@@H](Cc1ccc(O)cc1)C(=O)N[C@@H](Cc1ccc(O)cc1)C(=O)N[C@H](C(=O)N[C@@H](C)C(=O)N[C@@H](CC(C)C)C(=O)N[C@@H](CCCNC(=N)N)C(=O)N[C@@H](Cc1c[nH]cn1)C(=O)N[C@@H](Cc1ccc(O)cc1)C(=O)N[C@@H](Cc1ccc(O)cc1)C(=O)N[C@@H](CC(N)=O)C(=O)N[C@@H](Cc1c[nH]c2ccccc12)C(=O)N[C@@H](CC(C)C)C(=O)N[C@H](C(=O)N[C@@H](CCCNC(=N)N)C(=O)N[C@@H](CCC(N)=O)C(=O)N[C@@H](CCCNC(=N)N)C(=O)N[C@@H](Cc1ccc(O)cc1)C(N)=O)[C@@H](C)O)C(C)C` [Compound 6, N{alpha-4}-(3-methylbutanoyl)-N{epsilon-7}-(6-[(4S)-4-carboxy-4-(17-carboxyheptadecanamido)butanamido]hexanoyl)[4A,7K,9E,10A,13E,18Q,22V,23A,28Y,30W,31L]-hPYY(4-36)] were, in that order, 9.6 mg/mL and 10.0 mg/mL.
On to `CC(C)CC(=O)N[C@@H](C)C(=O)N1CCC[C@H]1C(=O)N[C@@H](C)C(=O)N[C@@H](CCCCNC(=O)CCCCCNC(=O)CC[C@H](NC(=O)CCCCCCCCCCCCCCCCC(=O)O)C(=O)O)C(=O)N1CCC[C@H]1C(=O)N1CCC[C@H]1C(=O)N[C@@H](CCC(=O)O)C(=O)N[C@@H](CC(=O)O)C(=O)N[C@@H](C)C(=O)N[C@@H](CCC(=O)O)C(=O)N1CCC[C@H]1C(=O)N[C@@H](CCC(=O)O)C(=O)N[C@@H](CCC(=O)O)C(=O)N[C@@H](CC(C)C)C(=O)N[C@@H](CCC(N)=O)C(=O)N[C@@H](CCCNC(=N)N)C(=O)N[C@@H](Cc1ccc(O)cc1)C(=O)N[C@@H](Cc1ccc(O)cc1)C(=O)N[C@H](C(=O)N[C@@H](CO)C(=O)N[C@@H](CC(C)C)C(=O)N[C@@H](CCCNC(=N)N)C(=O)N[C@@H](Cc1c[nH]cn1)C(=O)N[C@@H](Cc1ccc(O)cc1)C(=O)N[C@@H](Cc1ccc(O)cc1)C(=O)N[C@@H](CC(N)=O)C(=O)N[C@@H](Cc1c[nH]c2ccccc12)C(=O)N[C@@H](CC(C)C)C(=O)N[C@H](C(=O)N[C@@H](CCCNC(=N)N)C(=O)N[C@@H](CCC(N)=O)C(=O)N[C@@H](CCCNC(=N)N)C(=O)N[C@@H](Cc1ccc(O)cc1)C(N)=O)[C@@H](C)O)C(C)C` [Compound 165, N{alpha-4}-(3-methylbutanoyl)-N{epsilon-7}-(6-[(4S)-4-carboxy-4-(17-carboxyheptadecanamido)butanamido]hexanoyl)-[4A,6A,7K,9P,13E,18Q,22V,28Y,30W,31L]-hPYY(4-36)], for which the “Sol6” value stood at 8.8 mg/mL and the “Sol7” value was 9.1 mg/mL.
The like results for `CC[C@H](C)[C@H](NC(=O)[C@H](CCC(=O)O)NC(=O)[C@H](CCC(=O)O)NC(=O)[C@@H]1CCCN1C(=O)[C@H](CCC(=O)O)NC(=O)[C@H](C)NC(=O)[C@H](C)NC(=O)[C@H](C)NC(=O)[C@H](CCC(=O)O)NC(=O)[C@@H]1CCCN1C(=O)[C@H](CCCCNC(=O)CCCCCNC(=O)CC[C@H](NC(=O)CCCCCCCCCCCCCCCCC(=O)O)C(=O)O)NC(=O)[C@H](C)NC(=O)[C@@H]1CCCN1C(=O)[C@H](C)NC(=O)CC(C)C)C(=O)N[C@@H](CCC(N)=O)C(=O)N[C@@H](CCCNC(=N)N)C(=O)N[C@@H](Cc1ccc(O)cc1)C(=O)N[C@@H](Cc1ccc(O)cc1)C(=O)N[C@H](C(=O)N[C@@H](C)C(=O)N[C@@H](CC(C)C)C(=O)N[C@@H](CCCNC(=N)N)C(=O)N[C@@H](Cc1c[nH]cn1)C(=O)N[C@@H](Cc1ccc(O)cc1)C(=O)N[C@@H](Cc1ccc(O)cc1)C(=O)N[C@@H](CC(N)=O)C(=O)N[C@@H](Cc1c[nH]c2ccccc12)C(=O)N[C@@H](CC(C)C)C(=O)N[C@H](C(=O)N[C@@H](CCCNC(=N)N)C(=O)N[C@@H](CCC(N)=O)C(=O)N[C@@H](CCCNC(=N)N)C(=O)N[C@@H](Cc1ccc(O)cc1)C(N)=O)[C@@H](C)O)C(C)C` [Compound 116, N{alpha-4}-(3-methylbutanoyl)-N{epsilon-7}-(6-[(4S)-4-carboxy-4-(17-carboxyheptadecanamido)butanamido]hexanoyl)-[4A,6A,7K,9E,10A,11A,13E,17I,18Q,22V,23A,28Y,30W,31L]-hPYY(4-36)] were, in that order, 0.0 mg/mL and 0.0 mg/mL.
In the case of `CC(C)CC(=O)N[C@@H](C)C(=O)N1CCC[C@H]1C(=O)N[C@@H](CCC(=O)O)C(=O)N[C@@H](CCCCNC(=O)CCCCCNC(=O)CC[C@H](NC(=O)CCCCCCCCCCCCCCCCC(=O)O)C(=O)O)C(=O)N1CCC[C@H]1C(=O)N[C@@H](CCC(=O)O)C(=O)N[C@@H](CCC(=O)O)C(=O)N[C@@H](CC(=O)O)C(=O)N[C@@H](C)C(=O)N[C@H](C(=O)N1CCC[C@H]1C(=O)N[C@@H](CCC(=O)O)C(=O)N[C@@H](CCC(=O)O)C(=O)N[C@@H](CC(C)C)C(=O)N[C@@H](CCC(N)=O)C(=O)N[C@@H](CCCNC(=N)N)C(=O)N[C@@H](Cc1ccc(O)cc1)C(=O)N[C@@H](CCC(N)=O)C(=O)N[C@H](C(=O)N[C@@H](CO)C(=O)N[C@@H](CC(C)C)C(=O)N[C@@H](CCCNC(=N)N)C(=O)N[C@@H](Cc1c[nH]cn1)C(=O)N[C@@H](Cc1ccc(O)cc1)C(=O)N[C@@H](Cc1ccc(O)cc1)C(=O)N[C@@H](CC(N)=O)C(=O)N[C@@H](Cc1c[nH]c2ccccc12)C(=O)N[C@@H](CC(C)C)C(=O)N[C@H](C(=O)N[C@@H](CCCNC(=N)N)C(=O)N[C@@H](CCC(N)=O)C(=O)N[C@@H](CCCNC(=N)N)C(=O)N[C@@H](Cc1ccc(O)cc1)C(N)=O)[C@@H](C)O)C(C)C)[C@@H](C)O` [Compound 115, N{alpha-4}-(3-methylbutanoyl)-N{epsilon-7}-(6-[(4S)-4-carboxy-4-(17-carboxyheptadecanamido)butanamido]hexanoyl)-[4A,7K,9E,13T,18Q,21Q,22V,28Y,30W,31L]-hPYY(4-36)], the “Sol6” value amounted to 9.0 mg/mL and the “Sol7” value turned out to be 8.5 mg/mL.
